We go through 21 compounds from ChEMBL document CHEMBL1131280, “(2S,4S)-amino-4-(2,2-diphenylethyl)pentanedioic acid selective group 2 metabotropic glutamate receptor antagonist” (Bioorg Med Chem Lett, 1998).

A short description of assay [1]: Inhibitory activity towards group 2 metabotropic glutamate receptor by displacement of ACPD-sensitive [3H]- glutamate in rat forebrain membrane. Type of assay: cell membranes.
The target in assay [2] is Glutamate receptor ionotropic, kainate 3 (Rattus norvegicus, UniProt P42264). Briefly: Binding affinity against Ionotropic glutamate receptor using ACPD sensitive [3H]- glutamate displacement from rat forebrain preparations.
Assay [3] deals with Glutamate receptor ionotropic, AMPA (Rattus norvegicus, UniProt P19490+P19491+P19492+P19493). Briefly: Binding affinity against Ionotropic glutamate receptor using [3H]-AMPA displacement from rat forebrain preparations.
Assay [4] deals with Glutamate receptor ionotropic, kainate. The assay is described as follows: Binding affinity against Ionotropic glutamate receptor using [3H]-Kainate displacement from rat forebrain preparations.
Assay [5] deals with Metabotropic glutamate receptor 5 (Homo sapiens, UniProt P41594). The assay is described as follows: Tested for […] in non-neuronal cells (RGT) expressing human Metabotropic glutamate receptor 5 by measuring ACPD (100 uM)-stimulated phosphoinositide hydrolysis. Type of assay: functional, cell-based.
Assay [6] addresses Metabotropic glutamate receptor 3 (Homo sapiens, UniProt Q14832). Briefly: Tested for […] in non-neuronal cells (RGT) expressing human Metabotropic glutamate receptor 3 by measuring ACPD (3 uM) induced inhibition of forskolin (15 uM)-stimulated cAMP formation. Format: functional, cell-based. In general terms: cAMP levels reflect the balance of adenylyl cyclase and phosphodiesterase activity.

For assay [7], the target named is Metabotropic glutamate receptor 7 (Homo sapiens, UniProt Q14831). Briefly: Tested for […] in non-neuronal cells (RGT) expressing human mGlu7a receptor by measuring L-AP4 (1000 uM of forskolin (15 uM)-stimulated cAMP formation. Format: functional, cell-based.
Assay [8] addresses Metabotropic glutamate receptor 4 (Homo sapiens, UniProt Q14833). Briefly: Tested for […] in non-neuronal cells (RGT) expressing human Metabotropic glutamate receptor 4 by measuring L-AP4 (3 uM) induced inhibition of forskolin (15 uM)-stimulated cAMP formation. Type of assay: functional, cell-based.
Assay [9] concerns the target Metabotropic glutamate receptor 8 (Homo sapiens, UniProt O00222). Briefly: Tested for […] in non-neuronal cells (RGT) expressing human Metabotropic glutamate receptor 8 by measuring L-AP4 (0.3 uM of forskolin) (15 uM)-stimulated cAMP formation. Type of assay: functional, cell-based.
The target of assay [10] is Metabotropic glutamate receptor 2 (Homo sapiens, UniProt Q14416). Briefly: Tested for […] in non-neuronal cells (RGT) expressing human Metabotropic glutamate receptor 2 by measuring ACPD (3 uM) induced inhibition of forskolin (15 uM)-stimulated cAMP formation. Format: functional, cell-based.
Assay [11] deals with Metabotropic glutamate receptor 1 (Homo sapiens, UniProt Q13255). Briefly: Tested for […] in non-neuronal cells (RGT) expressing human Metabotropic glutamate receptor 1 by measuring ACPD (100 uM)-stimulated phosphoinositide hydrolysis. Format: functional, cell-based.

Molecules are shown by their SMILES. pIC50: −log10 of the molar value. Where only a bound is given, the exact number is not on record here.

Glutamate receptor ionotropic, kainate 3, sequence (P42264 whole entry): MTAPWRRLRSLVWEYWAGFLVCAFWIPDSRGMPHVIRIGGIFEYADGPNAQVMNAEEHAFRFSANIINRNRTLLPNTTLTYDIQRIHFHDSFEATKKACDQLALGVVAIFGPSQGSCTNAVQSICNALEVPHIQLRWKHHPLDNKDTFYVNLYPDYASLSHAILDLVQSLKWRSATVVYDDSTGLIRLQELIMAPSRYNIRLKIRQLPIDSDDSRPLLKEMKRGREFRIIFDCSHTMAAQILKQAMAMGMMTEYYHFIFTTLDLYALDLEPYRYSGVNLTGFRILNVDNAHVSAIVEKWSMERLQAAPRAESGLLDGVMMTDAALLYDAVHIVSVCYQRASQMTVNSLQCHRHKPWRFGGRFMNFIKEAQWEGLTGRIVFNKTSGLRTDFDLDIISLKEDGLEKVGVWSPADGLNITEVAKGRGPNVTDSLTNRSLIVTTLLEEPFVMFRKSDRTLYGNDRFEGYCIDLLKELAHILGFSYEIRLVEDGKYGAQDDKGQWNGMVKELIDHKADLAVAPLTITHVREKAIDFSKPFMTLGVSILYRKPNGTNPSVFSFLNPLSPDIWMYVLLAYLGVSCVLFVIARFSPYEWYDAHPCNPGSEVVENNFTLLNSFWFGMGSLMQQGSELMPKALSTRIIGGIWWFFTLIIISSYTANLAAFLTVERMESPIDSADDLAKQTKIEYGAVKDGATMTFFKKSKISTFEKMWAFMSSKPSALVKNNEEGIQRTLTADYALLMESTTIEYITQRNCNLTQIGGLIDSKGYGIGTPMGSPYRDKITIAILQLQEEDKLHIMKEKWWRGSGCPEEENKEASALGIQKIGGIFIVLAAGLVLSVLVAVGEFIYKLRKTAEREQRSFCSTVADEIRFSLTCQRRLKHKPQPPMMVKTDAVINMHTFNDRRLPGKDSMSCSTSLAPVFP
Metabotropic glutamate receptor 2, sequence (Q14416 whole entry): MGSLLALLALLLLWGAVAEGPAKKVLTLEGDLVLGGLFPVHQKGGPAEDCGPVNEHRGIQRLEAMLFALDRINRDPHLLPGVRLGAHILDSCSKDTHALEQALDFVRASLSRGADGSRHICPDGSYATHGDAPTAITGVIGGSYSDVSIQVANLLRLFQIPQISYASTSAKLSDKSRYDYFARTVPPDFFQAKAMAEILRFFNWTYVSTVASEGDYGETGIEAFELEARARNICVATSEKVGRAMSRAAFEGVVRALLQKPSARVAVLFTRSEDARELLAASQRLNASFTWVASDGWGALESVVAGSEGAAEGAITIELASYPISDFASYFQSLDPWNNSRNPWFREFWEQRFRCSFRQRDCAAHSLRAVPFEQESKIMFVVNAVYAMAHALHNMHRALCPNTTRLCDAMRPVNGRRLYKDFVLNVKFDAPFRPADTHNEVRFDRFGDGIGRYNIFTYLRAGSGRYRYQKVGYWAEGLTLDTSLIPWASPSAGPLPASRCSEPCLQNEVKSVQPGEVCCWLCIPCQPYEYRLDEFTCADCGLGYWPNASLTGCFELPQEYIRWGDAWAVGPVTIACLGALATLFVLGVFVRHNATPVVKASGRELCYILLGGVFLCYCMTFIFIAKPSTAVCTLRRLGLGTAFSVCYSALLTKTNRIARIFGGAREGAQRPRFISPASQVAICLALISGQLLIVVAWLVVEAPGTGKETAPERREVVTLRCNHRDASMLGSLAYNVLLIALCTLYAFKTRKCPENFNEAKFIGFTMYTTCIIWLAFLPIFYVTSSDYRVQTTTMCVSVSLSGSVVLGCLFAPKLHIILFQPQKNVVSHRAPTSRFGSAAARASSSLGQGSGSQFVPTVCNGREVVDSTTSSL
Metabotropic glutamate receptor 7, sequence (Q14831 whole entry): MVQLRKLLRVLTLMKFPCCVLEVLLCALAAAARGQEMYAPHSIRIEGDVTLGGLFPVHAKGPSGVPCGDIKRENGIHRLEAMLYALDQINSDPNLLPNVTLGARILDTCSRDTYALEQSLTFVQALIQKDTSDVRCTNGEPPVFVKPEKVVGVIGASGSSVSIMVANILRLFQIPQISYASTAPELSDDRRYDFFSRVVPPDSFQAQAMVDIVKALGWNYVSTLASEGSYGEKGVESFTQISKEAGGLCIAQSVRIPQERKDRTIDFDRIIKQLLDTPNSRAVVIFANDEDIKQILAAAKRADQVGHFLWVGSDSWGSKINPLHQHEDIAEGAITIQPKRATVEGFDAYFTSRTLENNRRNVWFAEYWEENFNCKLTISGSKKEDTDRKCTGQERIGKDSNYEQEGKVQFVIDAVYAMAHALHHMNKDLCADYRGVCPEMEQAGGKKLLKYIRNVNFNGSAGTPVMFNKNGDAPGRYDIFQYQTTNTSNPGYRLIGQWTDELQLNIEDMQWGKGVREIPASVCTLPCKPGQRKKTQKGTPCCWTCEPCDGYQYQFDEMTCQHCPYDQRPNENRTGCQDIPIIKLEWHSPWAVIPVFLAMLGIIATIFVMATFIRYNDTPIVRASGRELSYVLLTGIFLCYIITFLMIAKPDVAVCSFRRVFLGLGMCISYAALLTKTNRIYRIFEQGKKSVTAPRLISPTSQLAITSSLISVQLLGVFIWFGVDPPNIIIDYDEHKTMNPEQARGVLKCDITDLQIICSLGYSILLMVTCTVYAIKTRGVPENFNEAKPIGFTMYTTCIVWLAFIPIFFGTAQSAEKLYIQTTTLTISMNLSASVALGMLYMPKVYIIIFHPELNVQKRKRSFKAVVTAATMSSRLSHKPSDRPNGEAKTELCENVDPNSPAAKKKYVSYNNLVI
Metabotropic glutamate receptor 5, sequence (P41594 whole entry): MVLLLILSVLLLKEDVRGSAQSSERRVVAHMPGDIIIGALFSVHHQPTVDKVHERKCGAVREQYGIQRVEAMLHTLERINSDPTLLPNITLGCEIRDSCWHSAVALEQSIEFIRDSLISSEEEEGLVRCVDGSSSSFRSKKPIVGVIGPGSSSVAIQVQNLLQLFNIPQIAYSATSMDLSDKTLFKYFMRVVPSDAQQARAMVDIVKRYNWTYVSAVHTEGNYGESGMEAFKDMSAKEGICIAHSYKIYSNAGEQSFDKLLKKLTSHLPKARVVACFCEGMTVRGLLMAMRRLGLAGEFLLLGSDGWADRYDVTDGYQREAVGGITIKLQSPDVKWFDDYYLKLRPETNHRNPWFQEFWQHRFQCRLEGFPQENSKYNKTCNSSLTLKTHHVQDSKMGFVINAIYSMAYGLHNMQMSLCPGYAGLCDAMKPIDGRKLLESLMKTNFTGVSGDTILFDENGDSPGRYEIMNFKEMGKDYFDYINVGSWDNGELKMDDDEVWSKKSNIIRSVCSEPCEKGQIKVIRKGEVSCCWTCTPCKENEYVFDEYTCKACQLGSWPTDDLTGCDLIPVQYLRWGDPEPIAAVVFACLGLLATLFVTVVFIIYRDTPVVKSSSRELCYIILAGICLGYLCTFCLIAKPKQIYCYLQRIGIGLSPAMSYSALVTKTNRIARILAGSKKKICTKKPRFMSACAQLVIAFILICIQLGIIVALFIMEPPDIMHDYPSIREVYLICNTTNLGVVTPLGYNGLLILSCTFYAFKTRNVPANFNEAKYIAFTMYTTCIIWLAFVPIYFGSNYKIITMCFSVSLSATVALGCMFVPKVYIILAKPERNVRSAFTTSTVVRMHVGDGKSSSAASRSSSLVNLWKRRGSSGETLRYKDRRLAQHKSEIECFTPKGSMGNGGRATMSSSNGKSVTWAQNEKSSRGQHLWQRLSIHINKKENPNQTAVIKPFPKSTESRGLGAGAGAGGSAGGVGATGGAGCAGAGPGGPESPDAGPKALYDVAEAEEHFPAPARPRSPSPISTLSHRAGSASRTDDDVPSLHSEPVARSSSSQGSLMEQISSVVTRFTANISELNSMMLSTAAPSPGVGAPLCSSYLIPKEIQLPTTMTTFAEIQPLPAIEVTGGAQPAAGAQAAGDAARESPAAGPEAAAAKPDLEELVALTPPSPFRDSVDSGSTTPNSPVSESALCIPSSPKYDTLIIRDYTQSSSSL
Metabotropic glutamate receptor 1, sequence (Q13255 whole entry): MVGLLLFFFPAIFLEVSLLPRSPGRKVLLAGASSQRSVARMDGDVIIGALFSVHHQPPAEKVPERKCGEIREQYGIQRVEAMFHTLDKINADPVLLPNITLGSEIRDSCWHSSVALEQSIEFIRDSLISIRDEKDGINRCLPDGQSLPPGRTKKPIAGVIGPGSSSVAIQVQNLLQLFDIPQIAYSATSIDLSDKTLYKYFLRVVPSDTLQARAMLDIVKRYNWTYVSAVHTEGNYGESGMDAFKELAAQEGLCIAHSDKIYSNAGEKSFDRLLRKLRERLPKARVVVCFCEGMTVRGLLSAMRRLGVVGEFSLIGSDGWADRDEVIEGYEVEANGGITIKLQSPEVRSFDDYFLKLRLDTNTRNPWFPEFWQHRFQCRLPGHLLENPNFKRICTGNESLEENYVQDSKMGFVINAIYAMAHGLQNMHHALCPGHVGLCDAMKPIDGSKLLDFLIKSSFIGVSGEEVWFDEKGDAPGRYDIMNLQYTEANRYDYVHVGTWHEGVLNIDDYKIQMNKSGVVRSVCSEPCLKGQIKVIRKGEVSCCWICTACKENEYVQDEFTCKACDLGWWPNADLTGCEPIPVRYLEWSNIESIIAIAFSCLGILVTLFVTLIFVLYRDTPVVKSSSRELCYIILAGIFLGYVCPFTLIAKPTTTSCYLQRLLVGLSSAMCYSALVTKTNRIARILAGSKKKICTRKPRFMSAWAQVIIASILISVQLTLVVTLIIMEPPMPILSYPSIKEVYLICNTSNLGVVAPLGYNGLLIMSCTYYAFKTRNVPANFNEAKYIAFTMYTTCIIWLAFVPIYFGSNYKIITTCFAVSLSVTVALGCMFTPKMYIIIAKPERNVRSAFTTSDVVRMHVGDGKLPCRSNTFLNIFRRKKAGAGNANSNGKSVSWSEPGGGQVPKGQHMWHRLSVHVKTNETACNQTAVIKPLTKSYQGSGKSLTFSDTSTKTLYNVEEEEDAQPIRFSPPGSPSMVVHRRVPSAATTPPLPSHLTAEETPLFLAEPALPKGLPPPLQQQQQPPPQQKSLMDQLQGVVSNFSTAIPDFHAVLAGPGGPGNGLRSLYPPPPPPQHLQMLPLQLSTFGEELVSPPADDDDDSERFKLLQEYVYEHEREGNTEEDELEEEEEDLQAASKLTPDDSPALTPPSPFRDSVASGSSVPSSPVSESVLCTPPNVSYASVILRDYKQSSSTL

Take `COc1cccc(C[C@@H](C[C@H](N)C(=O)O)C(=O)O)c1`: the pIC50 (as a rule, −log10 of the IC50, conventionally taken in molar units) in assay [1] is 5.03.
The same measure, in the same setting: under `N[C@@H](C[C@H](CCCCCc1ccccc1)C(=O)O)C(=O)O` stands 5.60.
`N[C@@H](C[C@@H](CCCCc1ccccc1)C(=O)O)C(=O)O`: the negative logarithm of the IC50 (pIC50) in assay [1] is under 4.00.
Still for that read-out and setting: under `N[C@@H](C[C@H](Cc1ccc2ccccc2c1)C(=O)O)C(=O)O` stands 5.48; under `N[C@@H](C[C@H](CCCCC(c1ccccc1)c1ccccc1)C(=O)O)C(=O)O`, 5.47; under `N[C@@H](C[C@@H](CCCc1ccccc1)C(=O)O)C(=O)O`, 4.68.
As to `Cc1ccc(C[C@@H](C[C@H](N)C(=O)O)C(=O)O)cc1`, in [1], the negative logarithm of the IC50 (pIC50) is 5.34.
For the compound `N[C@@H](C[C@H](CCC(c1ccccc1)c1ccccc1)C(=O)O)C(=O)O`, the pIC50 was 5.94 in assay [2], 4.84 in assay [3] and 4.41 in assay [4].
As for `N[C@@H](C[C@H](CCCc1ccccc1)C(=O)O)C(=O)O`, the pIC50 in [2] is 5.74; in assay [3], 4.47; in assay [1] it was 5.74; in assay [4], 5.04.
For `N[C@@H](C[C@H](Cc1ccc(C(F)(F)F)cc1)C(=O)O)C(=O)O`, the pIC50 in assay [1] is 5.50.
Same read-out and setting: as for `N[C@@H](C[C@H](CC1CCC(c2ccccc2)(c2ccccc2)CC1)C(=O)O)C(=O)O`, the figure is 5.85; as for `N[C@@H](C[C@H](CC1CCC(c2ccccc2)CC1)C(=O)O)C(=O)O` (some centres not stated), 5.49.
The same measure, in the same setting: under `N[C@@H](C[C@H](CCCCc1ccccc1)C(=O)O)C(=O)O` stands 5.33.
Consider `N[C@@H](C[C@H](CCCC(c1ccccc1)c1ccccc1)C(=O)O)C(=O)O`, for which the pIC50 in [5] is under 3.52; in assay [3], under 4.00; in [6], 4.52; in assay [7] it was under 3.52; in [8], under 3.52; in assay [9], under 3.52. Besides, the negative logarithm of the IC50 (pIC50) in assay [10] was 4.30; in [11], under 3.52.
Regarding `N[C@@H](C[C@H](CC(c1ccccc1)c1ccccc1)C(=O)O)C(=O)O`, the negative-log IC50 (pIC50) in [2] was 6.42; in assay [5] it was under 3.52; in assay [3] it was under 4.00; in assay [6] it was 5.21; in assay [7], under 3.52; in assay [8] it was under 3.52. Besides, the pIC50 in assay [9] was under 3.52; in assay [10], 4.74; in assay [4], under 4.00; in assay [11], under 3.52.
`N[C@@H](C[C@H](Cc1ccccc1)C(=O)O)C(=O)O` gave a pIC50 in assay [1] of 5.05.
On the same count and under the same terms, as for `N[C@@H](C[C@H](CCc1ccccc1)C(=O)O)C(=O)O`, the figure is 5.33; as for `N[C@@H](C[C@@H](Cc1ccc(C(F)(F)F)cc1)C(=O)O)C(=O)O` (single isomer, unassigned), under 4.00; as for `N[C@@H](C[C@@H](Cc1ccc2ccccc2c1)C(=O)O)C(=O)O` (single isomer, unassigned), 5.05.
Still for that read-out and setting: under `Cc1ccc(C[C@H](C[C@H](N)C(=O)O)C(=O)O)cc1` (single isomer, unassigned) stands 5.11; under `N[C@@H](C[C@@H](CCc1ccccc1)C(=O)O)C(=O)O` (single isomer, unassigned), 4.84.
